Test results from patent US20040110771A1, “7-(r)-aminotriazolopyrimidines, the production thereof and use of the same for combatting phytopathogenic fungi” (priority 2000, published 2004).

Legend:
Type in all cases: in vivo
Puccinia recondita = test: Curative activity against brown rust of wheat caused by Puccinia recondita; settings: curative spray 24 h after inoculation, wheat seedlings "Kanzler", 7 days
Summary of the method: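 Wheat seedlings (cv. Kanzler) inoculated with brown rust spores and held 24 h at 90–95% humidity and 20–22°C, then sprayed to runoff with the emulsified compound the next day. Rust development on leaves scored after 7 days in greenhouse at 20–22°C and 65–70% relative humidity.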

Pyrenophora teres = test: Activity against net blotch of barley caused by Pyrenophora teres; settings: barley seedlings "Igri", inoculated 24 h after spraying, 6 days
Summary of the method: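 Disease was read as visually estimated % infection of total leaf area 6 days after inoculation (greenhouse, 20-24° C, 95-100% humidity). Seedlings of cultivar Igri had been sprayed to runoff point with diluted compound emulsion and inoculated with a P. teres spore suspension 24 h later.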

Septoria tritici = test: Protective activity against Septoria foliar blotch disease of wheat caused by Septoria tritici; settings: wheat seedlings "Riband", inoculated 24 h after spraying, 2 weeks
Experimental: The active compounds were prepared separately or jointly as a 10% strength emulsion in a mixture of 70% by weight of cyclohexanone, 20% by weight of Nekanil® LN (Lutensol® AP6, wetting agent having emulsifying and dispersing action based on ethoxylated alkylphenols) and 10% by weight of Wettol® EM (nonionic emulsifier based on ethoxylated castor oil) and diluted with water to the desired concentration.
Leaves of potted wheat seedlings of the cultivar “Riband” were sprayed to runoff point with an aqueous preparation of active compound which had been prepared from a stock solution made of 10% of active compound, 85% of cyclohexanone and 5% of emulsifier. 24 hours after the spray coating had dried on, they were inoculated with an aqueous spore suspension of Septoria tritici. The suspension contained 2.0×10^6 spores/ml. The test plants were then placed in a greenhouse at 18-22° C. and a relative atmospheric humidity of close to 100%. After 2 weeks, the extent of the development of the disease was determined visually in % infection of the entire leaf area.

[1] = tested on: Blumeria graminis forma specialis tritici; test: Activity against mildew of wheat caused by Blumeria graminis forma specialis tritici; settings: wheat seedlings "Kanzler", dusted with spores 24 h after spraying, 7 days
Summary of the method: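 Protective test: Blumeria graminis f. sp. tritici spores dusted onto cv. Kanzler wheat seedling leaves 24 h after spray deposit of aqueous compound preparation had dried. After 7 days in greenhouse (20-24° C., 60-90% relative humidity), infection estimated by eye as % of total leaf area.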

SMILES | % infection of the leaves after application of an aqueous preparation comprising . . . ppm of active compound (Puccinia recondita; 63 ppm) [%] | % infection of the leaves after application of an aqueous preparation comprising . . . ppm of active compound (Puccinia recondita; 250 ppm) [%] | % infection of the leaves after application of an aqueous preparation comprising . . . ppm of active compound (Pyrenophora teres; 16 ppm) [%] | % infection of the leaves after application of an aqueous preparation comprising . . . ppm of active compound (Septoria tritici; 16 ppm) [%] | % infection of the leaves after application of an aqueous preparation comprising . . . ppm of active compound (Septoria tritici; 63 ppm) [%] | % infection of the leaves after application of an aqueous preparation comprising . . . ppm of active compound (Septoria tritici; 250 ppm) [%] | % infection of the leaves after application of an aqueous preparation comprising . . . ppm of active compound ([1]; 16 ppm) [%] | % infection of the leaves after application of an aqueous preparation comprising . . . ppm of active compound ([1]; 63 ppm) [%] | % infection of the leaves after application of an aqueous preparation comprising . . . ppm of active compound ([1]; 250 ppm) [%] | % infection of the leaves after application of an aqueous preparation comprising . . . ppm of active compound (Puccinia recondita; 16 ppm) [%] | % infection of the leaves after application of an aqueous preparation comprising . . . ppm of active compound (Pyrenophora teres; 63 ppm) [%] | % infection of the leaves after application of an aqueous preparation comprising . . . ppm of active compound (Pyrenophora teres; 250 ppm) [%]
CC(C)C(C)Nc1c(-c2c(F)cccc2F)c(Cl)nc2ncnn12 (stereo not shown) [I.-5] | 10 | 10 | 20 | 15 | 15 | 15 | 40 | 40 | 20 | – | – | –
CCC(C)Nc1c(-c2c(Cl)cccc2Cl)c(Cl)nc2ncnn12 (stereo not shown) [I.-7] | – | – | 80 | 70 | 30 | 15 | – | – | 60 | 40 | 30 | 15
CC(C)C(C)Nc1c(-c2c(F)cc(F)cc2F)c(Cl)nc2ncnn12 (stereo not shown) [I.-14] | 0 | – | 3 | 15 | 15 | 15 | 30 | 30 | 20 | 0 | – | –
CC(C)[C@H](C)Nc1c(-c2c(F)cccc2F)c(Cl)nc2ncnn12 [comparison (S)-amine of I.-5] | 100 | 100 | 80 | 100 | 100 | 100 | 100 | 100 | 100 | – | – | –
CC[C@H](C)Nc1c(-c2c(Cl)cccc2Cl)c(Cl)nc2ncnn12 [comparison (S)-amine of I.-7] | – | – | 100 | 90 | 90 | 90 | – | – | 100 | 100 | 100 | 100
CC(C)[C@H](C)Nc1c(-c2c(F)cc(F)cc2F)c(Cl)nc2ncnn12 [comparison (S)-amine of I.-14] | 5 | – | 40 | 90 | 70 | 70 | 100 | 80 | 80 | 100 | – | –
CC(Nc1c(-c2ccccc2Cl)c(Cl)nc2ncnn12)C(C)(C)C [comparison (S)-amine of I.-44a] | – | 100 | 100 | 100 | 100 | 100 | 100 | 100 | 100 | – | 30 | –
